Where two headings read alike, the source gives them in different places.
Tests used:
[1] = molecular target: HEK293 cells expressing NR1/NR2B (Homo sapiens (Human), UniProt Q05586+Q13224); test: NR2B NAM Assay (FDSS Ca2+ influx cell assay); type: cell-based; settings: NR2B NAM assay, class of inhibitory concentration; read-out: Activity Category
Experimental: (§1) Cell Culture and plating: HEK293 cells expressing NR1/NR2B (Chantest, Cleveland, Ohio) were grown to 70-80% confluency as an adherent monolayer in standard tissue culture flasks at 37° C., 5% CO2 per supplier's instructions. NR2B expression was induced by incubation with 0.3-0.4 μg/ml tetracycline in the presence of 4 mM ARL-15896 for 18-24 hours under the same growth conditions, then transferred to 30° C. for another 3-5 hours.
(§2) After induction, cell culture medium was removed and cells were rinsed once with Ca^2+ and Mg^2+-free Dulbecco's phosphate buffered saline. Cells were then removed from the flask using TrypLE™ Express (Life Technologies) according to the manufacturer's instructions and collected to 50 ml centrifuge tubes. Following two washes in Ca^2+/Mg^2+-free HBSS with 20 mM HEPES (HHnoCa), cells were counted and viability assessed using trypan blue. To load cells with Ca^2+-sensitive dye, they were resuspended in fluo-8 plus Component B (AAT Bioquest Products) diluted in HHnoCa and incubated 15 minutes at 37° C., followed by 30 minutes at room temp (in dark). Cells were then washed and resuspended in HHnoCa to remove extracellular dye and plated in 384-well plates (Falcon, uncoated) at 20,000-30,000 cells/well in a final volume of 25 μl/well.
(§3) FDSS Assay: To each well of the plate, 10 μL test compound, control (MK801) or HHnoCa buffer was added at different concentrations to yield final concentrations of 0.001, 0.003, 0.010, 0.030, 0.100, 0.300, 1.000, 3.000, 10.000, or 30.000 uM final concentration of DMSO of 0.1%. Following 10 minutes pre-incubation in the dark, plates are loaded onto the Hamamatsu FDSS 6000. After collecting baseline fluorescence images, 3 μM glutamate, 3 μM glycine, and 1 mM Ca^2+ in HHnoCa buffer is added to each well, and Ca^2+ is recorded for 3 minutes. Data were processed by computing ratio of fluorescence at the end of data collection to baseline fluorescence to assess degree of Ca^2+ influx inhibition relative to that observed in MK801.
(§4) Table 8 below provides activity of each compound according to the legend that “++++” indicates inhibition at a concentration<100 nM; “+++” indicates inhibition at a concentration between 100 nM and 1 μM of the disclosed compound; “++” indicates inhibition at a concentration of from 1 μM to 10 μM; and “+” indicates inhibition at a concentration>10 μM.

[2] = molecular target: HEK293 cells expressing NR1/NR2B (Homo sapiens (Human), UniProt Q13224); test: NR2B NAM Assay (FDSS Ca2+ influx cell assay); type: cell-based
HEK293 cells expressing NR1/NR2B (Homo sapiens (Human), UniProt Q13224), sequence (Q13224 27-1484, other chains not shown): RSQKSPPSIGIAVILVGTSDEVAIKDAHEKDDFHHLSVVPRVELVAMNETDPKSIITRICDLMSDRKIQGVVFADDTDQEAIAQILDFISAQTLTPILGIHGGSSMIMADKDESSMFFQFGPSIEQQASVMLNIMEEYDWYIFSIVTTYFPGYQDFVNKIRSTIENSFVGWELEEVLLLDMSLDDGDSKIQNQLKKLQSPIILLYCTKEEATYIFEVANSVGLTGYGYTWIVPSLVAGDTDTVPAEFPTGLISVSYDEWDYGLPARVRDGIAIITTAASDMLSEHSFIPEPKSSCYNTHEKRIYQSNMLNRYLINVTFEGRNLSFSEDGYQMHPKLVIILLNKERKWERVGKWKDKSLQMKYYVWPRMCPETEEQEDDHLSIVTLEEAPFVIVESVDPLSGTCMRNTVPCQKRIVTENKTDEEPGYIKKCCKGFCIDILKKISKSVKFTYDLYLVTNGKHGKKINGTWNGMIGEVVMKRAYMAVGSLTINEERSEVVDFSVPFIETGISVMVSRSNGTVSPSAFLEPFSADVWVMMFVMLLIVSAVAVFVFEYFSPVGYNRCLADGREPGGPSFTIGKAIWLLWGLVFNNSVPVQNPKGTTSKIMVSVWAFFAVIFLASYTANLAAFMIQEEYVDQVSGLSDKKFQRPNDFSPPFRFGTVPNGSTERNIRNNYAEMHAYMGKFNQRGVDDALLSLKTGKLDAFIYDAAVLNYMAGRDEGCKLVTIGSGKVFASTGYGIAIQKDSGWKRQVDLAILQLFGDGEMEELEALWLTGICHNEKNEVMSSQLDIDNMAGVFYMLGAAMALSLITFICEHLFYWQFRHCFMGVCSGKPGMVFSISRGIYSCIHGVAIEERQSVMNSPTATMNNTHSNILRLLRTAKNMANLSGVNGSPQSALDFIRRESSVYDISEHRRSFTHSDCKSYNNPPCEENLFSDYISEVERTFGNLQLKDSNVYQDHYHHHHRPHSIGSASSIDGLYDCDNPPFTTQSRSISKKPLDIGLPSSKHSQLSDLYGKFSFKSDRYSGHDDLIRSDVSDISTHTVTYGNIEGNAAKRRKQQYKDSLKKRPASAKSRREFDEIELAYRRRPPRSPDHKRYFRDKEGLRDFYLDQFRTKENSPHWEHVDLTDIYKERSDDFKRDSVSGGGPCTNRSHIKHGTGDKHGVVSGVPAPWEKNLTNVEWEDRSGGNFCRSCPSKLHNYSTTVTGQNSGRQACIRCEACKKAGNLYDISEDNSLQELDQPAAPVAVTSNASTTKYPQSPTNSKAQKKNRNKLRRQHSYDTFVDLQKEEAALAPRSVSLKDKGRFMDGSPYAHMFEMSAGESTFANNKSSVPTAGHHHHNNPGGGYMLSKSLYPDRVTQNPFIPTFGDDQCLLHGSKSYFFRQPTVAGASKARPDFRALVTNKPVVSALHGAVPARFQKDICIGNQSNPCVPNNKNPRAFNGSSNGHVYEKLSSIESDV
Experimental: as §1, §2, §3, §4

[3] = Ca2+ influx inhibition relative to MK801, 3 μM glutamate, 3 μM glycine, 1 mM Ca2+, read-out: NR2B NAM IC50

HEK293 cells expressing NR1/NR2B (Homo sapiens (Human), UniProt Q05586+Q13224), sequence (Q13224 27-1484, other chains not shown): as above

Row | Structure (SMILES) | IC50 [1] | IC50 [2, 3] | IC50 ([2]; NR2B NAM assay, class of inhibitory concentration, read-out: Activity Category)
1 | Cc1ccc(O[C@H]2C[C@@H]3CN(CC(=O)c4ccc(O)cn4)C[C@@H]3C2)c(F)n1 | > 10000 nM | 10000 nM | 
2 | COc1ccc(O[C@H]2C[C@@H]3CN(CC(O)c4ccc(O)cc4)C[C@@H]3C2)cc1 (stereo partly shown) | < 100 nM | 51.6 nM | 
3 | O=C(CN1C[C@H]2C[C@H](Oc3c(F)cccc3F)C[C@H]2C1)c1ccc(O)cn1 | 1000 to 10000 nM | 1080 nM | 
4 | COc1ccc(O[C@@H]2C[C@@H]3CN(CC(=O)c4ccc(O)c(F)c4)C[C@@H]3C2)cc1 | 100 to 1000 nM | 250 nM | 
5 | COc1cccc(O[C@H]2C[C@@H]3CN(CC(O)c4ccc(O)cn4)C[C@@H]3C2)c1F (stereo partly shown) | < 100 nM | 50.8 nM | 
6 | O=C(CN1C[C@H]2C[C@@H](Oc3cc(F)cc(F)c3)C[C@H]2C1)c1ccc(O)cn1 | > 10000 nM | 10000 nM | 
7 | Oc1ccc(C(O)CN2C[C@H]3C[C@H](Oc4ccncc4)C[C@H]3C2)cc1 (stereo partly shown) | 1000 to 10000 nM | 4470 nM | 
8 | Oc1ccc(C(O)CN2C[C@H]3C[C@H](Oc4c(F)cccc4F)C[C@H]3C2)cc1 (stereo partly shown) | < 100 nM | 26.3 nM | 
9 | COc1cccc(O[C@H]2C[C@@H]3CN(CC(O)c4ccc(O)cn4)C[C@@H]3C2)c1 (stereo partly shown) | < 100 nM | 70.7 nM | 
10 | O=C(CN1C[C@H]2C[C@H](Oc3ccncc3)C[C@H]2C1)c1ccc(O)cc1 | 1000 to 10000 nM | 2780 nM | 
11 | COc1ccc(O[C@@H]2C[C@@H]3CN(CC(O)c4ccc(O)cn4)C[C@@H]3C2)cc1 (stereo partly shown) | 100 to 1000 nM | 440 nM | 
12 | Oc1ccc(C(O)CN2C[C@H]3C[C@H](Oc4cccnc4F)C[C@H]3C2)nc1 (stereo partly shown) | < 100 nM | 20.9 nM | 
13 | COc1ccc(O[C@@H]2C[C@@H]3CN(CC(=O)c4ccc(O)cc4)C[C@@H]3C2)cc1 | < 100 nM | 57.3 nM | 
14 | Cc1ccc(O[C@H]2C[C@@H]3CN(CC(O)c4ccc(O)c(F)c4)C[C@@H]3C2)cn1 (stereo partly shown) | < 100 nM | 90 nM | 
15 | Oc1ccc(C(O)CN2C[C@H]3C[C@H](Oc4cccnc4F)C[C@H]3C2)cc1F (stereo partly shown) | < 100 nM | 21.7 nM | 
16 | Oc1ccc(C(O)CN2C[C@H]3C[C@@H](Oc4ccc(F)cc4)C[C@H]3C2)cc1F (stereo partly shown) | < 100 nM | 30.5 nM | 
17 | COc1ccc(F)c(O[C@H]2C[C@@H]3CN(CC(=O)c4ccc(O)cc4)C[C@@H]3C2)c1 | 100 to 1000 nM | 631 nM | 
18 | COc1cccc(F)c1O[C@H]1C[C@@H]2CN(CC(=O)c3ccc(O)cn3)C[C@@H]2C1 | > 10000 nM | 10000 nM | 
19 | O=C(CN1C[C@H]2C[C@H](Oc3ccc(F)nc3)C[C@H]2C1)c1ccc(O)cn1 | > 10000 nM | 10000 nM | 
20 | Cc1cccc(O[C@H]2C[C@@H]3CN(CC(O)c4ccc(O)cn4)C[C@@H]3C2)c1F (stereo partly shown) | < 100 nM | 23.4 nM | 
21 | Oc1ccc(C(O)CN2C[C@H]3C[C@H](Oc4cnccn4)C[C@H]3C2)cc1 (stereo partly shown) | 100 to 1000 nM | 243 nM | 
22 | Cc1ccc(O[C@H]2C[C@@H]3CN(CC(=O)c4ccc(O)cc4)C[C@@H]3C2)c(F)c1 | 100 to 1000 nM | 210 nM | 
23 | COc1ccc(F)c(O[C@H]2C[C@@H]3CN(CC(=O)c4ccc(O)cn4)C[C@@H]3C2)c1 | > 10000 nM | 10000 nM | 
24 | Oc1ccc(C(O)CN2C[C@H]3C[C@H](Sc4ccccc4)C[C@H]3C2)cc1 (stereo partly shown) | < 100 nM | 9.36 nM | 
25 | Cc1ccc(O[C@H]2C[C@@H]3CN(CC(=O)c4ccc(O)cc4)C[C@@H]3C2)cn1 | < 100 nM | 84.5 nM | 

Row | Structure (SMILES) | IC50 [1] | IC50 [2, 3] | IC50 ([2]; NR2B NAM assay, class of inhibitory concentration, read-out: Activity Category)
26 | N#Cc1ccc(O[C@@H]2C[C@@H]3CN(CC(O)c4ccc(O)cn4)C[C@@H]3C2)cc1 (stereo partly shown) | > 10000 nM | 10000 nM | 
27 | COc1cccc(O[C@H]2C[C@@H]3CN(CC(=O)c4ccc(O)cc4)C[C@@H]3C2)c1F | 100 to 1000 nM | 117 nM | 
28 | COc1cccc(O[C@H]2C[C@@H]3CN(CC(=O)c4ccc(O)cn4)C[C@@H]3C2)c1F | 1000 to 10000 nM | 3780 nM | 
29 | O=C(CN1C[C@H]2C[C@H](Oc3ccc(F)cc3)C[C@H]2C1)c1ccc(O)cc1 | < 100 nM | 47 nM | 
30 | O=C(CN1C[C@H]2C[C@H](Oc3cncc(Cl)c3)C[C@H]2C1)c1ccc(O)cc1 | 100 to 1000 nM | 253 nM | 
31 | O=C(CN1C[C@H]2C[C@H](Sc3ccc(F)cc3)C[C@H]2C1)c1ccc(O)cc1 | < 100 nM | 74 nM | 
32 | N#Cc1cccc(O[C@H]2C[C@@H]3CN(CC(=O)c4ccc(O)cn4)C[C@@H]3C2)c1 | > 10000 nM | 10000 nM | 
33 | Oc1ccc(C(O)CN2C[C@H]3C[C@H](Oc4cccc5cnccc45)C[C@H]3C2)cc1 (stereo partly shown) | 100 to 1000 nM | 191 nM | 
34 | Oc1ccc(C(O)CN2C[C@H]3C[C@H](Oc4ccc(F)nc4)C[C@H]3C2)nc1 (stereo partly shown) | 100 to 1000 nM | 112 nM | 
35 | N#Cc1ccc(O[C@H]2C[C@@H]3CN(CC(O)c4ccc(O)cn4)C[C@@H]3C2)cc1 (stereo partly shown) | < 100 nM | 18 nM | 
36 | Oc1ccc(C(O)CN2C[C@H]3C[C@H](Oc4ccc(F)c(F)c4)C[C@H]3C2)cc1 (stereo partly shown) | < 100 nM | 14 nM | 
37 | O=C(CN1C[C@H]2C[C@H](Oc3cncnc3)C[C@H]2C1)c1ccc(O)cc1 | 1000 to 10000 nM | 1040 nM | 
38 | O=S(=O)(c1ccccc1)[C@H]1C[C@@H]2CN(CC(O)c3ccc(O)c(F)c3)C[C@@H]2C1 (stereo partly shown) | > 10000 nM | 10000 nM | 
39 | N#Cc1ccc(O[C@H]2C[C@@H]3CN(CC(O)c4ccc(O)c(F)n4)C[C@@H]3C2)cc1 (stereo partly shown) | 100 to 1000 nM | 367 nM | 
40 | COc1ccc(S[C@H]2C[C@@H]3CN(CC(O)c4ccc(O)cc4)C[C@@H]3C2)cc1 (stereo partly shown) | 100 to 1000 nM | 113 nM | 
41 | N#Cc1ccc(O[C@@H]2C[C@@H]3CN(CC(=O)c4ccc(O)cn4)C[C@@H]3C2)cc1 | > 10000 nM | 10000 nM | 
42 | Oc1ccc(C(O)CN2C[C@H]3C[C@H](Oc4ccccc4)C[C@H]3C2)cc1 (stereo partly shown) | < 100 nM | 5.96 nM | 
43 | Oc1ccc(C(O)CN2C[C@H]3C[C@H](Oc4ccccc4F)C[C@H]3C2)cc1 (stereo partly shown) | < 100 nM | 4.44 nM | 
44 | OC(CN1C[C@H]2C[C@H](Oc3ccc(F)cc3)C[C@H]2C1)c1cnn(Cc2ccccc2)c1 (stereo partly shown) | > 10000 nM | 10000 nM | 
45 | N#Cc1ccc(O[C@H]2C[C@@H]3CN(CC(=O)c4ccc(O)cc4)C[C@@H]3C2)cc1 | < 100 nM | 68.2 nM | 
46 | Oc1ccc(C(O)CN2C[C@H]3C[C@H](Oc4cccnc4)C[C@H]3C2)cc1F (stereo partly shown) | < 100 nM | 52.1 nM | 
47 | N#Cc1ccc(O[C@H]2C[C@@H]3CN(CC(O)c4ccc(O)cc4)C[C@@H]3C2)cc1 (stereo partly shown) | < 100 nM | 47.4 nM | 
48 | Oc1ccc(C(O)CN2C[C@H]3C[C@H](Oc4ccc(F)nc4)C[C@H]3C2)cc1 (stereo partly shown) | < 100 nM | 74.1 nM | 
49 | COc1cccc(F)c1O[C@H]1C[C@@H]2CN(CC(O)c3ccc(O)cn3)C[C@@H]2C1 (stereo partly shown) | 100 to 1000 nM | 163 nM | 
50 | OC(CN1C[C@H]2C[C@H](Oc3ccc(F)cc3)C[C@H]2C1)c1cn[nH]c1 (stereo partly shown) [drawing 268] |  | 1980 nM | 1000 to 10000 nM
